Source: patent US7687512B2, “Use of pyridinyl-pyrimidinylamino-benzamide derivatives for the treatment of amyloid related disorders” (Novartis AG, priority 2003, dated 2010)

How the values were obtained:
Abeta secretion = settings: HEK/APPswe cell cultures, at concentrations below 10 microM
Method: HEK/APPswe cells are plated in microtiter plates precoated with 10 μg/ml poly-D-lysine at 12,000 cells/well in 100 μl/well DMEM medium supplemented with 10% FCS, 0.25 mg/ml G418 sulfate, 1% penicillin streptomycin. The following day, supernatant is replaced with 90 μl/well of fresh medium and 10 μl/well of compound diluted in culture medium are added. Two types of control wells are used: cell culture medium without cells plus 10 μl/well of all compound dilutions (background signals) and cell culture medium from untreated cells (positive control). 24 hours later after compound addition, conditioned medium is collected and Aβ levels determined by a specific sandwich ELISA.
For the sandwich ELISA, the maxisorp microtiterplates are coated overnight at 4° C. with 100 μl/well of the monoclonal antibody 25H10 diluted 1:1000 in PB for Aβ40 detection or monoclonal antibody B10E7 diluted 1:2750 for detection of Aβ42. […] After 1 hour incubation at room temperature wells are washed as described above and alkaline phosphatase activity is determined by adding 100 μl/well of diethanolamine buffer, pH 9.8 (100 mM diethanolamine, 1 mM MgCl2, pH adjusted to 9.8 with 2 M HCl) containing the chemiluminescent CSPD substrate (25 mM stock solution diluted 1:416) and the enhancer Emerald II (diluted 1:10). […] Samples are measured in triplicate. […]

HEK/APPswe cells = settings: HEK/APPswe cell cultures, at concentrations below 10 microM
Method: To determine cytotoxicity, cells are tested by the MTS colorimetric kit performed essentially according to the manufacturer's specifications (Promega, #G5430X). After collecting the conditioned medium for the sandwich ELISA, the rest of the conditioned medium is removed completely and replaced with 100 μl/well culture medium containing one fifth of MTS solution prepared as recommended in the kit. After 3 hours incubation at 37° C., absorbance is read at an OD of 490 nm with a reference wavelength set to 630 nm. Values are given as % metabolic rate (n=6). The 0% value is calculated from wells which had no cells, 100% from wells with an untreated cell layer

Cc1cn(-c2cc(NC(=O)c3ccc(C)c(Nc4nccc(-c5cccnc5)n4)c3)cc(C(F)(F)F)c2)cn1 [Example 2, 4-Methyl-N-[3-(4-methyl-imidazol-1-yl)-5-trifluoromethyl-phenyl]-3-(4-pyridin-3-yl-pyrimidin-2-ylamino)-benzamide]
reduction of Abeta secretion in the medium (Abeta secretion): clear reduction
effect on cellular viability (HEK/APPswe cells): without having any effect
